Molecules are shown by their SMILES. Entries after “also recorded” stand apart in the source; their conditions may differ.

Data on four molecules can be found in patent US9999625B2, “Pyrrolobenzodiazepine compounds” (FEMTOGENIX LIMITED, priority 2014, dated 2018).

Assay [1] concerns STAT3 consensus sequence (5′-GACATTGC-3′). Description: HPLC assay of DNA adduct formation. To be noted: 4:1 ligand:oligonucleotide, room temperature, UV 254 nm. The format is binding. The text has this: (§1) The interactions of C1-linked PBD core compound (42), […] C1-linked PBD dimer compound (51) were studied with duplex transcription factor consensus sequences. For the C1-linked PBD core compound (42) and C1-linked PBD dimer compound (51) the study used a STAT3 consensus sequence (5′-GACATTGC-3′). Whereas for the C1-linked PBD monomer compound (49), an NF-KB consensus sequence (5′-GGGACAGCCC-3′) was used in the study. The interactions of each of the three compounds were studied with an HPLC assay utilizing a X-bridge MS […] Oligonucleotide Separation Technology (OST) column (2.3×50 mm) and a gradient of 40% acetonitrile/water and 100 mM TEAB ([…])/water as mobile phase with a flow rate of 0.5 mL/min and UV detection at 254 nm. A 4:1 molar ratio of ligand:oligonucleotide was used, with each single-stranded oligonucleotide dissolved in 1M ammonium acetate to form stock solutions of 1 mM. The oligonucleotides were initially annealed by heating their 1 mM solutions to 70° C. for 10 mins followed by gradual cooling over 8 hours and storage overnight at −20° C. Working solutions of oligonucleotides of 25 μM were then prepared by diluting the annealed stock solutions with 100 mM ammonium acetate. The ligands were dissolved in DMSO to form a stock solution of 10 mM which was stored at −20° C. for no longer than four months. Working solutions of the drug of 100 μM were prepared by diluting the stock solution with 100 mM ammonium acetate. The working solutions of the ligands were added to the working solution the oligonucleotides at RT, and the mixture incubated for different time intervals at room temperature. […] The chromatograms for HPLC assays using C1-linked PBD core (42), monomer (49) and dimer (51) compounds are shown in FIGS. 7, 8 and 9 respectively.

The subject of assay [2] is MDA MB231 (triple negative human breast cancer). As to the kind of experiment: Cytotoxicity by MTT assay. To be noted: 72 hours exposure, MDA MB 231. The format is cell-based. The procedure:
MDA MB231 (triple negative human breast cancer) was obtained from the American Type Culture Collection. The cell-line was maintained in monolayer culture in 75 cm^2 flasks (TPP, Switzerland) under a humidified 5% CO2 atmosphere at 37° C. The MDA MB231 cell line was maintained in high glucose (Dulbecco's Modified Eagle Medium) DMEM (4.5 g\l; Invitrogen), foetal bovine serum (10%, Biosera UK), non-essential amino acids (ix; Invitrogen), L-glutamine (2 mM; Invitrogen) and Penicillin-Streptomycin (1% v/v, Invitrogen). For passaging, cells were washed with PBS [Phosphate-Buffered Saline] […] For seeding, cells were counted using a Neubauer haemocytometer (Assistant, Germany) by microscopy (Nikon, USA) on a non-adherent suspension of cells that were washed in PBS, trypsinised, centrifuged at 8° C. at 8000 rpm for 5 min and re-suspended in fresh medium.
The cells were grown in normal cell culture conditions at 37° C. under a 5% CO2 humidified atmosphere using appropriate medium. […] After 72 h of continuous exposure to each compound, the cytotoxicity was determined using the 3-(4,5-Dimethylthiazol-2-yl)-2,5-diphenyltetrazolium bromide (MTT) (Lancaster Synthesis Ltd, UK) colorimetric assay. Absorbance was quantified by spectrophotometry at λ=570 nm (Envision Plate Reader, PerkinElmer, USA). IC50 values were calculated by a dose-response analysis using the Prism GraphPad Prism® software. […]

In assay [3] the test system is NF-KB consensus sequence (5′-GGGACAGCCC-3′). Description: HPLC assay of DNA adduct formation. The format is binding. To be noted: 4:1 ligand:oligonucleotide, room temperature, UV 254 nm.
Source text: as §1

Another assay has as its system cancer cell lines. The settings on record: cited from earlier work.

With `COc1cc2c(cc1OC)C(=O)N1CC[C@H](OCCCO[C@H]3CCN4C(=O)c5cc(OC)c(OC)cc5N=C[C@H]34)[C@H]1C=N2` [Compound 51, (1S,1′S)-1,1′-(Propane-1,3-diylbis(oxy))bis(7,8-dimethoxy-1,2,3,11a-tetrahydro-5H-benzo[e]pyrrolo [1,2-a][1,4]diazepin-5-one)], the “DNA adduct formation (HPLC chromatogram)” value in assay [1] is on record as “evidence of DNA adduct formation; also recorded: interacted with the DNA consensus sequence to form adducts”. Further, in assay [2], the IC50 was found to be 236 ± 27 nM.
In the case of `COC(=O)c1cc(-c2ccc(NC(=O)c3nc(NC(=O)CO[C@H]4CCN5C(=O)c6cc(OC)c(OC)cc6N=C[C@H]45)cn3C)cc2)cn1C` [Compound 49, Methyl 4-(4-(4-(2-(((1S,11aR)-7,8-dimethoxy-5-oxo-2,3,5,11a-tetrahydro-1H-benzo[e]pyrrolo[1,2-a][1,4]diazepin-1-yl)oxy)acetamido)-1-methyl-1H-imidazole-2-carboxamido)phenyl)-1-methyl-1H-pyrrole-2-carboxylate], the “DNA adduct formation (HPLC chromatogram)” value in assay [3] is recorded as “evidence of DNA adduct formation; also recorded: interacted with the DNA consensus sequence to form adducts”. The same molecule came in with a half-inhibitory concentration (IC50) in assay [2] of 36 ± 2.3 nM.
For the molecule `COC(=O)c1cc(-c2ccc(NC(=O)c3nc(NC(=O)CCCOc4cc5c(cc4OC)C(=O)N4CCC[C@H]4C=N5)cn3C)cc2)cn1C` [KMR-28-39], the “activity against some cancer cell lines” value in the assay on cancer cell lines is “femtomolar activity”.
On to `COc1cc2c(cc1OC)C(=O)N1CC[C@H](O)[C@H]1C=N2` [Compound 42, (1S,11aR)-1-Hydroxy-7,8-dimethoxy-1,2,3,11a-tetrahydro-5H-benzo[e]pyrrolo[1,2-a][1,4]diazepin-5-one], for which the “DNA adduct formation (HPLC chromatogram)” value in assay [1] is listed as “evidence of DNA adduct formation; also recorded: interacted with the DNA consensus sequence to form adducts”.
